In PubChem BioAssay AID2060899 (Molecular Pharmacology Branch, DTP, NCI, 2025):
“And” between values parts separate entries of the source, which are not always exact repeats. Identical values can stand only once.

System: 565726-208-R1-J5-PDC complex spheroids, growth inhibition
Experiment: Anticancer human tumor 565726-208-R1-J5-PDC patient-derived pancreatic adenocarcinoma cell line growth inhibition [RAS]
Settings: for viability, T/C: stronger effect = lower value
How it was run: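 Multi-cell-type spheroids: tumor cells plus HUVEC endothelial cells and mesenchymal stem cells. RAS-pathway inhibitors were combined with targeted agents, each dosed in half-log steps down from clinical Cmax, or from 10 microM when Cmax was unknown.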

[1] = curve of first compound, second compound 0.00316 µM
[2] = curve of first compound, second compound 0.01 µM
[3] = curve of first compound, second compound 0.0316 µM
[4] = curve of first compound, second compound 0.1 µM
[5] = curve of first compound, second compound 0.316 µM
[6] = curve of first compound, second compound 1 µM
[7] = second compound 0.00316 µM, first compound 0.0316 µM
[8] = second compound 0.00316 µM, first compound 0.1 µM
[9] = second compound 0.00316 µM, first compound 0.316 µM
[10] = second compound 0.00316 µM, first compound 1 µM
[11] = second compound 0.00316 µM, first compound 3.16 µM
[12] = second compound 0.00316 µM, first compound 10 µM
[13] = second compound 0.01 µM, first compound 0.0316 µM
[14] = second compound 0.01 µM, first compound 0.1 µM
[15] = second compound 0.01 µM, first compound 0.316 µM
[16] = second compound 0.01 µM, first compound 1 µM
[17] = second compound 0.01 µM, first compound 3.16 µM
[18] = second compound 0.01 µM, first compound 10 µM
[19] = second compound 0.0316 µM, first compound 0.0316 µM
[20] = second compound 0.0316 µM, first compound 0.1 µM
[21] = second compound 0.0316 µM, first compound 0.316 µM
[22] = second compound 0.0316 µM, first compound 1 µM
[23] = second compound 0.0316 µM, first compound 3.16 µM
[24] = second compound 0.0316 µM, first compound 10 µM
[25] = second compound 0.1 µM, first compound 0.0316 µM
[26] = second compound 0.1 µM, first compound 0.1 µM
[27] = second compound 0.1 µM, first compound 0.316 µM
[28] = second compound 0.1 µM, first compound 1 µM
[29] = second compound 0.1 µM, first compound 3.16 µM
[30] = second compound 0.1 µM, first compound 10 µM
[31] = second compound 0.316 µM, first compound 0.0316 µM
[32] = second compound 0.316 µM, first compound 0.1 µM
[33] = second compound 0.316 µM, first compound 0.316 µM
[34] = second compound 0.316 µM, first compound 1 µM
[35] = second compound 0.316 µM, first compound 3.16 µM
[36] = second compound 0.316 µM, first compound 10 µM
[37] = second compound 1 µM, first compound 0.0316 µM
[38] = second compound 1 µM, first compound 0.1 µM
[39] = second compound 1 µM, first compound 0.316 µM
[40] = second compound 1 µM, first compound 1 µM
[41] = second compound 1 µM, first compound 3.16 µM
[42] = second compound 1 µM, first compound 10 µM
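Note: spheroids exposed to compounds for seven days before readout.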
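Throughout, for viability, T/C: 100% = DMSO vehicle control viability.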

Compound: CCc1c2c(nc3ccc(O)cc13)-c1cc3c(c(=O)n1C2)COC(=O)[C@]3(O)CC + CCn1c(-c2cc(N3CCN(C)CC3)cnc2C(C)OC)c2c3cc(ccc31)-c1csc(n1)CC(NC(=O)C1CC1C)C(=O)N1CCCC(N1)C(=O)OCC(C)(C)C2
- IC50 (curve of first compound, second compound 0.000949 µM): 0.00136 µM
- IC50 (curve of first compound, second compound 0.003 µM): < 0.000949 µM
- IC50 (curve of first compound, second compound 0.00949 µM): < 0.000949 µM
- IC50 (curve of first compound, second compound 0.03 µM): < 0.000949 µM
- IC50 (curve of first compound, second compound 0.0949 µM): < 0.000949 µM
- IC50 (curve of first compound, second compound 0.3 µM): < 0.000949 µM
- viability, T/C (second compound 0.000949 µM, first compound 0.000949 µM): 58%
- viability, T/C (second compound 0.000949 µM, first compound 0.003 µM): 32.1%
- viability, T/C (second compound 0.000949 µM, first compound 0.00949 µM): 21.2%
- viability, T/C (second compound 0.000949 µM, first compound 0.03 µM): 16.2%
- viability, T/C (second compound 0.000949 µM, first compound 0.0949 µM): 9.45%
- viability, T/C (second compound 0.000949 µM, first compound 0.3 µM): 5.7%
- viability, T/C (second compound 0.003 µM, first compound 0.000949 µM): 47.9%
- viability, T/C (second compound 0.003 µM, first compound 0.003 µM): 32.1%
- viability, T/C (second compound 0.003 µM, first compound 0.00949 µM): 25.3%
- viability, T/C (second compound 0.003 µM, first compound 0.03 µM): 17.7%
- viability, T/C (second compound 0.003 µM, first compound 0.0949 µM): 12.1%
- viability, T/C (second compound 0.003 µM, first compound 0.3 µM): 6.82%
- viability, T/C (second compound 0.00949 µM, first compound 0.000949 µM): 36.1%
- viability, T/C (second compound 0.00949 µM, first compound 0.003 µM): 30%
- viability, T/C (second compound 0.00949 µM, first compound 0.00949 µM): 21.6%
- viability, T/C (second compound 0.00949 µM, first compound 0.03 µM): 16%
- viability, T/C (second compound 0.00949 µM, first compound 0.0949 µM): 12.1%
- viability, T/C (second compound 0.00949 µM, first compound 0.3 µM): 6.89%
- viability, T/C (second compound 0.03 µM, first compound 0.000949 µM): 27.9%
- viability, T/C (second compound 0.03 µM, first compound 0.003 µM): 24.1%
- viability, T/C (second compound 0.03 µM, first compound 0.00949 µM): 20.7%
- viability, T/C (second compound 0.03 µM, first compound 0.03 µM): 15.9%
- viability, T/C (second compound 0.03 µM, first compound 0.0949 µM): 11.9%
- viability, T/C (second compound 0.03 µM, first compound 0.3 µM): 6.36%
- viability, T/C (second compound 0.0949 µM, first compound 0.000949 µM): 22.6%
- viability, T/C (second compound 0.0949 µM, first compound 0.003 µM): 23.4%
- viability, T/C (second compound 0.0949 µM, first compound 0.00949 µM): 18.6%
- viability, T/C (second compound 0.0949 µM, first compound 0.03 µM): 13.6%
- viability, T/C (second compound 0.0949 µM, first compound 0.0949 µM): 10.4%
- viability, T/C (second compound 0.0949 µM, first compound 0.3 µM): 6.38%
- viability, T/C (second compound 0.3 µM, first compound 0.000949 µM): 21.4%
- viability, T/C (second compound 0.3 µM, first compound 0.003 µM): 20.8%
- viability, T/C (second compound 0.3 µM, first compound 0.00949 µM): 15.6%
- viability, T/C (second compound 0.3 µM, first compound 0.03 µM): 14.6%
- viability, T/C (second compound 0.3 µM, first compound 0.0949 µM): 10.7%
- viability, T/C (second compound 0.3 µM, first compound 0.3 µM): 5.7%

Compound: Cc1nc(N2CCC3(CC2)COC(C)C3N)c(CO)nc1Sc1ccnc(N)c1Cl (centres undefined) + C=CC(=O)N1CCN(c2nc(OCC3CCCN3C)nc3c(F)c(-c4nc(N)cc(C)c4C(F)(F)F)c(Cl)cc23)C(C)C1
- IC50 [1]: > 10 µM
- IC50 [2]: > 10 µM
- IC50 [3]: > 10 µM
- IC50 [4]: > 10 µM
- IC50 [5]: > 10 µM
- IC50 [6]: > 10 µM
- viability, T/C [7]: 115%
- viability, T/C [8]: 142%
- viability, T/C [9]: 71%
- viability, T/C [10]: 86.8%
- viability, T/C [11]: 117%
- viability, T/C [12]: 143%
- viability, T/C [13]: 154%
- viability, T/C [14]: 134%
- viability, T/C [15]: 77.8%
- viability, T/C [16]: 87.9%
- viability, T/C [17]: 121%
- viability, T/C [18]: 148%
- viability, T/C [19]: 149%
- viability, T/C [20]: 173%
- viability, T/C [21]: 77.3%
- viability, T/C [22]: 90.5%
- viability, T/C [23]: 126%
- viability, T/C [24]: 139%
- viability, T/C [25]: 162%
- viability, T/C [26]: 147%
- viability, T/C [27]: 80.6%
- viability, T/C [28]: 74.2%
- viability, T/C [29]: 138%
- viability, T/C [30]: 126%
- viability, T/C [31]: 180%
- viability, T/C [32]: 136%
- viability, T/C [33]: 78.5%
- viability, T/C [34]: 76.7%
- viability, T/C [35]: 106%
- viability, T/C [36]: 140%
- viability, T/C [37]: 167%
- viability, T/C [38]: 135%
- viability, T/C [39]: 78.3%
- viability, T/C [40]: 83.4%
- viability, T/C [41]: 111%
- viability, T/C [42]: 133%

Compound: C[C@@H](NC(=O)c1ncnc(N)c1Cl)c1ncc(C(=O)Nc2cc(C(F)(F)F)c(Cl)cn2)s1
- viability, T/C (compound 0.0316 µM): 116% [middle of 4 runs]
- viability, T/C (compound 0.316 µM): 101% [middle of 4 runs]
- viability, T/C (compound 1 µM): 100% (2×) and 109% and 117%
- viability, T/C (compound 3.16 µM): 106% [middle of 4 runs]
- IC50 (curve of compound): > 10 µM

Compound: CC(C)n1nc(-c2ccc3oc(N)nc3c2)c2c(N)ncnc21
- viability, T/C (compound 0.00316 µM): 84% [middle of 4 runs]
- viability, T/C (compound 0.01 µM): 66% [middle of 4 runs]
- viability, T/C (compound 0.0316 µM): 54.3% [middle of 4 runs]

Compound: NC1c2ccccc2OC12CCN(c1cnc3c(N4CCCc5ncccc54)n[nH]c3n1)CC2 (centres undefined) + C=CC(=O)N1CCN(c2nc(OCC3CCCN3C)nc3c(F)c(-c4nc(N)cc(C)c4C(F)(F)F)c(Cl)cc23)C(C)C1
- IC50 [1]: > 10 µM
- IC50 [2]: > 10 µM
- IC50 [3]: > 10 µM
- IC50 [4]: > 10 µM
- IC50 [5]: > 10 µM
- IC50 [6]: > 10 µM
- viability, T/C [7]: 72.7%
- viability, T/C [8]: 94.8%
- viability, T/C [9]: 66.4%
- viability, T/C [10]: 59.4%
- viability, T/C [11]: 75.9%
- viability, T/C [12]: 106%
- viability, T/C [13]: 83.5%
- viability, T/C [14]: 121%
- viability, T/C [15]: 70.8%
- viability, T/C [16]: 59.3%
- viability, T/C [17]: 79.5%
- viability, T/C [18]: 102%
- viability, T/C [19]: 122%
- viability, T/C [20]: 135%
- viability, T/C [21]: 61.5%
- viability, T/C [22]: 70.8%
- viability, T/C [23]: 85%
- viability, T/C [24]: 92.4%
- viability, T/C [25]: 136%
- viability, T/C [26]: 131%
- viability, T/C [27]: 88.6%
- viability, T/C [28]: 56.3%
- viability, T/C [29]: 55%
- viability, T/C [30]: 93.7%
- viability, T/C [31]: 108%
- viability, T/C [32]: 134%
- viability, T/C [33]: 59.7%
- viability, T/C [34]: 64.7%
- viability, T/C [35]: 58.6%
- viability, T/C [36]: 104%
- viability, T/C [37]: 99.5%
- viability, T/C [38]: 109%
- viability, T/C [39]: 69.3%
- viability, T/C [40]: 61.8%
- viability, T/C [41]: 71.4%
- viability, T/C [42]: 106%

Compound: CCC(CC)c1cc(NC2CCC(N)C2)n2nccc2n1 (centres undefined)
- viability, T/C (compound 0.316 µM): 105% [middle of 4 runs]
- viability, T/C (compound 1 µM): 81.9% [middle of 4 runs]
- viability, T/C (compound 3.16 µM): 1.5% [middle of 4 runs]
- viability, T/C (compound 10 µM): 1.88% [middle of 4 runs]
- IC50 (curve of compound): 1.57 µM [middle of 4 runs]
